Test results taken from patent publication US10259776B2, “Branched 3-phenylpropionic acid derivatives and their use” (BAYER INTELLECTUAL PROPERTY GMBH, priority 2011, dated 2019).

What was measured:
[1] = target: Haem-free sGC (recombinant soluble guanylate cyclase) (Rattus norvegicus (Rat), UniProt P20595); assay: Stimulation of recombinant soluble guanylate cyclase (sGC) in vitro, haem-free enzyme; assay type: biochemical; details: haem-free (0.5% Tween 20), n = 5
Procedure: Investigations on the stimulation of recombinant soluble guanylate cyclase (sGC) by the compounds according to the invention with and without sodium nitroprusside, and with and without the haem-dependent sGC inhibitor 1H-1,2,4-oxadiazolo[4,3a]quinoxalin-1-one (ODQ), are carried out by the method described in detail in the following reference: M. Hoenicka, E. M. Becker, H. Apeler, T. Sirichoke, H. Schroeder, R. Gerzer and J.-P. Stasch, “Purified soluble guanylyl cyclase expressed in a baculovirus/Sf9 system: Stimulation by YC-1, nitric oxide, and carbon oxide”, J. Mol. Med. 77 (1999), 14-23. The haem-free guanylate cyclase is obtained by adding Tween 20 to the sample buffer (0.5% in the final concentration).
(§1) The activation of sGC by a test substance is reported as x-fold stimulation of the basal activity.

[2] = target: Haem-containing sGC (recombinant soluble guanylate cyclase) (Rattus norvegicus (Rat), UniProt P20595); assay: Stimulation of recombinant soluble guanylate cyclase (sGC) in vitro, haem-containing enzyme; assay type: biochemical; details: for Stimulation (x-fold) of recombinant sGC, haem-containing sGC, basal: n = 5
Chain of Haem-containing sGC (recombinant soluble guanylate cyclase) (P20595 whole entry): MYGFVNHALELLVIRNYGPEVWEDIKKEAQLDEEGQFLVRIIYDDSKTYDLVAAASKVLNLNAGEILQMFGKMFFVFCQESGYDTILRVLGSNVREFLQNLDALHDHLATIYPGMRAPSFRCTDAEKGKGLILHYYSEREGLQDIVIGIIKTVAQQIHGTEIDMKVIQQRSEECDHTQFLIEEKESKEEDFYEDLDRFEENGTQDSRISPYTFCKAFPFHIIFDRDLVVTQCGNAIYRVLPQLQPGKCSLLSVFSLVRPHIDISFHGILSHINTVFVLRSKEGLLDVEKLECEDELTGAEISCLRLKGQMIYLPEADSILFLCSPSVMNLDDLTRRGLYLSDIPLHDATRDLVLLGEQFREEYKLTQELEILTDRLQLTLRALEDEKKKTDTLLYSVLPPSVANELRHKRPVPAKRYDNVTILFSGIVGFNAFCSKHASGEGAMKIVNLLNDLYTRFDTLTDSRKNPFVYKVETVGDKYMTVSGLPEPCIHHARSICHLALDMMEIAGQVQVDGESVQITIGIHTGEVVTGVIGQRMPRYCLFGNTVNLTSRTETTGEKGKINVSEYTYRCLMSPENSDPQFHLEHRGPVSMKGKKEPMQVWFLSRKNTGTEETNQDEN
Chain of Haem-containing sGC (recombinant soluble guanylate cyclase) (P19686 whole entry partner): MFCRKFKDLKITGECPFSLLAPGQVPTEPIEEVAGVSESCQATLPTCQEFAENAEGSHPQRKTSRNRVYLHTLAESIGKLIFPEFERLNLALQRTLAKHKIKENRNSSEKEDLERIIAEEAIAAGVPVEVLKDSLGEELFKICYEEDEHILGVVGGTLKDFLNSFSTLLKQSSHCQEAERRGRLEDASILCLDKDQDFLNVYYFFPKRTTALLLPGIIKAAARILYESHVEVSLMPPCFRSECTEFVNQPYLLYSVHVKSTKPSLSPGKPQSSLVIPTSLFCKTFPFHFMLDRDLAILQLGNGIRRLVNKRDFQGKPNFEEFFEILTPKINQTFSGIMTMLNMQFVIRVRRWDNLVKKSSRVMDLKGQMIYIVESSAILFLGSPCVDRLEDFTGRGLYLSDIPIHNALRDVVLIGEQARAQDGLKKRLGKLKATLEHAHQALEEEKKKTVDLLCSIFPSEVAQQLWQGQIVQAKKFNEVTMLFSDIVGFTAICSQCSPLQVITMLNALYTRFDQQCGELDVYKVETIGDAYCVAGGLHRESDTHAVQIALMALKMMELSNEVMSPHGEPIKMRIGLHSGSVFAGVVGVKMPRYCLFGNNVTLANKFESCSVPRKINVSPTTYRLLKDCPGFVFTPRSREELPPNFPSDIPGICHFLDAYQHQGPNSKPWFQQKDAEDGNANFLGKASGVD
Excerpt: Hoenicka, E. M. Becker, H. Apeler, T. Sirichoke, H. Schroeder, R. Gerzer and J.-P. Stasch, “Purified soluble guanylyl cyclase expressed in a baculovirus/Sf9 system: Stimulation by YC-1, nitric oxide, and carbon oxide”, J. Mol. Med. 77 (1999), 14-23. The haem-free guanylate cyclase is obtained by adding Tween 20 to the sample buffer (0.5% in the final concentration).
as §1

[3] = target: sGC in the CHO reporter cell (Rattus norvegicus (Rat), UniProt P20595); assay: Action at a recombinant guanylate cyclase reporter cell line; assay type: cell-based; details: CHO reporter cell in vitro
Chain of sGC in the CHO reporter cell (P20595 whole entry): as the sequence (P20595 whole entry) above
Chain of sGC in the CHO reporter cell (P19686 whole entry partner): as the sequence (P19686 whole entry partner) above
Procedure: The cellular action of the compounds according to the invention is determined at a recombinant guanylate cyclase reporter cell line, as described in F. Wunder et al., Anal. Biochem. 339, 104-112 (2005).

[4] = target: soluble guanylate cyclase (sGC) (Rattus norvegicus (Rat), UniProt P20595); assay: Stimulation of sGC enzyme activity (PPi detection, luciferase); assay type: biochemical; details: sGC enzyme in vitro
Chain of soluble guanylate cyclase (sGC) (P20595 whole entry): as the sequence (P20595 whole entry) above
Chain of soluble guanylate cyclase (sGC) (P19686 whole entry partner): as the sequence (P19686 whole entry partner) above
Procedure: Soluble guanylate cyclase (sGC) converts on stimulation GTP into cGMP and pyrophosphate (PPi). PPi is detected with the aid of the assay described below. The signal produced in the assay increases as the reaction progresses and serves as a measure of the sGC enzyme activity under the given stimulation.
To carry out the assay, 29 μl of enzyme solution [0-10 nM soluble guanylate cyclase (prepared according to Honicka et al., J. Mol. Med. 77, 14-23 (1999)) in 50 mM TEA, 2 mM MgCl2, 0.1% BSA (fraction V), 0.005% Brij®, pH 7.5] are initially introduced into a microplate, and 1 μl of the substance to be tested (as a serially diluted solution in DMSO) is added. The mixture is incubated at room temperature for 10 min. […] The enzyme reaction is started by adding 20 μl of substrate solution [1.25 mM guanosine 5′-triphosphate (Sigma) in 50 mM TEA, 2 mM MgCl2, 0.1% BSA (fraction V), 0.005% Brij®, pH 7.5] and measured continuously in a luminometer. The extent of the stimulation by the substance to be tested can be determined relative to the signal of the unstimulated reaction. […]

Chain of Haem-free sGC (recombinant soluble guanylate cyclase) (P20595 whole entry): as the sequence (P20595 whole entry) above
Chain of Haem-free sGC (recombinant soluble guanylate cyclase) (P19686 whole entry partner): as the sequence (P19686 whole entry partner) above

C[C@H]([C@H](C(=O)Nc1cc(C(CC(=O)O)C2CC2)ccc1Cl)c1ccc(Cl)cc1)C(F)(F)F (single isomer, unassigned; (+)) [Example 22]
Stimulation (x-fold) of recombinant sGC, haem-free sGC, basal ([1]; 0.01 μM Example 22): 1.2 ± 0.1 x-fold
Stimulation (x-fold) of recombinant sGC, haem-free sGC, basal ([1]; 0.1 μM Example 22): 1.6 ± 0.5 x-fold
Stimulation (x-fold) of recombinant sGC, haem-free sGC, basal ([1]; 1.0 μM Example 22): 4.9 ± 1.5 x-fold
Stimulation (x-fold) of recombinant sGC, haem-free sGC, basal ([1]; 10 μM Example 22): 14.2 ± 2.0 x-fold
Stimulation (x-fold) of recombinant sGC, haem-containing sGC, +0.01 μM DEA/NO ([2]; 0.01 μM Example 22): 4.4 ± 1.3 x-fold
Stimulation (x-fold) of recombinant sGC, haem-containing sGC, +10 μM ODQ ([2]; 0.01 μM Example 22): 5.7 ± 1.6 x-fold
Stimulation (x-fold) of recombinant sGC, haem-containing sGC, basal ([2]; 0.01 μM Example 22): 1.6 ± 0.3 x-fold
Stimulation (x-fold) of recombinant sGC, haem-containing sGC, +0.01 μM DEA/NO ([2]; 0.1 μM Example 22): 3.4 ± 0.9 x-fold
Stimulation (x-fold) of recombinant sGC, haem-containing sGC, +10 μM ODQ ([2]; 0.1 μM Example 22): 6.1 ± 1.7 x-fold
Stimulation (x-fold) of recombinant sGC, haem-containing sGC, basal ([2]; 0.1 μM Example 22): 1.6 ± 0.5 x-fold
Stimulation (x-fold) of recombinant sGC, haem-containing sGC, +0.01 μM DEA/NO ([2]; 1.0 μM Example 22): 4.4 ± 1.4 x-fold
Stimulation (x-fold) of recombinant sGC, haem-containing sGC, +10 μM ODQ ([2]; 1.0 μM Example 22): 8.4 ± 2.2 x-fold
Stimulation (x-fold) of recombinant sGC, haem-containing sGC, basal ([2]; 1.0 μM Example 22): 2.4 ± 1.0 x-fold
Stimulation (x-fold) of recombinant sGC, haem-containing sGC, +0.01 μM DEA/NO ([2]; 10 μM Example 22): 7.8 ± 2.5 x-fold
Stimulation (x-fold) of recombinant sGC, haem-containing sGC, +10 μM ODQ ([2]; 10 μM Example 22): 18.3 ± 5.4 x-fold
Stimulation (x-fold) of recombinant sGC, haem-containing sGC, basal ([2]; 10 μM Example 22): 4.9 ± 1.2 x-fold
Effect of combination with the NO donor DEA/NO on sGC stimulation ([2]; haem-containing sGC, combination with DEA/NO): no synergistic effect
MEC (minimum effective concentration), sGC-activating activity in the CHO reporter cell [3]: 1.8 nM

CC(C(=O)O)C(c1ccc(Cl)c(NC(=O)C(c2ccc(Cl)cc2)[C@@H](C)C(F)(F)F)c1)C1CC1 (stereo partly drawn) [Example 30, 3-(4-Chloro-3-{[(3R)-2-(4-chlorophenyl)-4,4,4-trifluoro-3-methylbutanoyl]amino}phenyl)-3-cyclopropyl-2-methylpropanoic acid]
MEC (minimum effective concentration), sGC-activating activity in the CHO reporter cell [3]: 10 nM
MEC (minimum effective concentration), activating action at the sGC enzyme [4]: 17 nM
